From ChEMBL document CHEMBL1141054, “Analogs of a potent maxi-K potassium channel opener with an improved inhibitory profile toward cytochrome P450 isozymes” (Bioorg Med Chem Lett, 2005)
One block for each molecule: values may come before it.

Legend:
Cytochrome P450 3A4 [1] = target: T1, Cytochrome P450 3A4 (Homo sapiens, UniProt P08684); assay: Inhibition against Cytochrome P450 3A4 prepared from baculovirus-infected insect cells using resorufin benzyl ether; format: ADME
Cytochrome P450 1A2 = target: T2, Cytochrome P450 1A2 (Homo sapiens, UniProt P05177); assay: Inhibition against Cytochrome P450 1A2 prepared from baculovirus-infected insect cells using 3-cyano-7-ethoxycoumarin; format: ADME
T2 sequence (P05177 whole entry): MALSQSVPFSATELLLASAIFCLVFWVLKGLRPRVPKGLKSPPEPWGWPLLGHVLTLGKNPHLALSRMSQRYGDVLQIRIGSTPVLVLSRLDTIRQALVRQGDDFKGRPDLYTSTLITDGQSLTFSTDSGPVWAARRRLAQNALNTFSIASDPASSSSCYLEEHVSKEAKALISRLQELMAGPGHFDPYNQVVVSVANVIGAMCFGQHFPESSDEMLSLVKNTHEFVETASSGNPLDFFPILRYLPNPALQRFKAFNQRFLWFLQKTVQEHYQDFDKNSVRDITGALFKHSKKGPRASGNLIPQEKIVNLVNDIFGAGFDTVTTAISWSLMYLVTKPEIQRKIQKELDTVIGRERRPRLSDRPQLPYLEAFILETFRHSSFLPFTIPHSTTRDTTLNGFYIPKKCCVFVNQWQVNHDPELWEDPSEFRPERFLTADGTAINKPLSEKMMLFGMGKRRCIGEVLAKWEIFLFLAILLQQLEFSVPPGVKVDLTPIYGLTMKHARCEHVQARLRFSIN

Cytochrome P450 2C19 = Cytochrome P450 2C19 (Homo sapiens, UniProt P33261); assay: Inhibition against Cytochrome P450 2C19 prepared from baculovirus-infected insect cells using 3-cyano-7-ethoxycoumarin; format: ADME
Cytochrome P450 2C9 [2] = target: T3, Cytochrome P450 2C9 (Homo sapiens, UniProt P11712); assay: Inhibition against Cytochrome P450 2C9 prepared from baculovirus-infected insect cells using 7-methoxy-4-trifluoromethylcoumarin; format: ADME
Cytochrome P450 3A4 [3] = target: T1, Cytochrome P450 3A4; assay: Inhibition against Cytochrome P450 3A4 prepared from baculovirus-infected insect cells using 7-benzyloxy- 4-trifluoromethylcoumarin; format: ADME
Cytochrome P450 2D6 [4] = target: T4, Cytochrome P450 2D6 (Homo sapiens, UniProt P10635); assay: Inhibition against Cytochrome P450 2D6 prepared from baculovirus-infected insect cells using 3-[2-(N,N-diethyl-N-methylamino)ethyl]-7- methoxy-4-methylcoumarin; format: ADME
[5] = Percent increase of potassium current mediated by large conductance calcium-activated channel expressed in Xenopus laevis oocytes at 20 uM; format: functional, Homo sapiens, Oocyte
Cytochrome P450 2C9 [6] = target: T3, Cytochrome P450 2C9; assay: Inhibitory activity against Cytochrome P450 2C9; format: ADME
Cytochrome P450 2C9 [7] = target: T3, Cytochrome P450 2C9; assay: Inhibition against Cytochrome P450 2C9; format: ADME
Cytochrome P450 3A4 [8] = target: T1, Cytochrome P450 3A4; assay: Inhibition against Cytochrome P450 3A4 prepared from baculovirus-infected insect cells using resorufin benzylether; format: ADME
Cytochrome P450 3A4 [9] = target: T1, Cytochrome P450 3A4; assay: Inhibition against Cytochrome P450 3A4 prepared from baculovirus-infected insect cells using 7-benzyloxy-4-trifluoromethylcoumarin; format: ADME
Cytochrome P450 2D6 [10] = target: T4, Cytochrome P450 2D6; assay: Inhibition against Cytochrome P450 2D6 prepared from baculovirus-infected insect cells using 3-[2-(N,N-diethyl-N-methylamino)ethyl]-7-methoxy-4-methylcoumarin; format: ADME

T3 sequence (P11712 whole entry): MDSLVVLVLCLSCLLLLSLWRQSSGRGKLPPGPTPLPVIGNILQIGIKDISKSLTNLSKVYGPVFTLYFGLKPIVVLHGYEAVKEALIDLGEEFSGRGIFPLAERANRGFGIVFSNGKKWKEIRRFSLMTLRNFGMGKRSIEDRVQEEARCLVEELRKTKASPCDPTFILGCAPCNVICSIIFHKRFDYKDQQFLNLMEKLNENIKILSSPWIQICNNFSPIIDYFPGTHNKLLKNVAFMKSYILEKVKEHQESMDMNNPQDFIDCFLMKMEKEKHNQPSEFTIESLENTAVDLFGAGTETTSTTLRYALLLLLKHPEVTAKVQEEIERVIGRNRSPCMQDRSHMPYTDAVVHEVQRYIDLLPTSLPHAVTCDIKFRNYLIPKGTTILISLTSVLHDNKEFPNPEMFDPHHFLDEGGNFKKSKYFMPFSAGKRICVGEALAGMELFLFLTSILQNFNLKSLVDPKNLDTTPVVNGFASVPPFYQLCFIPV
T1 sequence (P08684 whole entry): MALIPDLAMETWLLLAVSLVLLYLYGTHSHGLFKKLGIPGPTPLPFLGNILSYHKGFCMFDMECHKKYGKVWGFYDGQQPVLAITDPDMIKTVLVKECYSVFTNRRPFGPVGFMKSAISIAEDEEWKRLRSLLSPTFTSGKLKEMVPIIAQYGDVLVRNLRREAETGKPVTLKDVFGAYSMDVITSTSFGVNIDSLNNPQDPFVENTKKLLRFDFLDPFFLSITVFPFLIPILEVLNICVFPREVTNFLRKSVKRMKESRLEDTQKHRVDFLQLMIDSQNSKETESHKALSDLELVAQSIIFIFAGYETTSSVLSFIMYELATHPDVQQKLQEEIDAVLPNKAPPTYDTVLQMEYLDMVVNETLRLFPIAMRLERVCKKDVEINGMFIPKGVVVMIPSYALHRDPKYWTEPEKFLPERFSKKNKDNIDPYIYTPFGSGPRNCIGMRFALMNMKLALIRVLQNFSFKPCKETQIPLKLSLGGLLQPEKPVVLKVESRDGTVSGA
T4 sequence (P10635 whole entry): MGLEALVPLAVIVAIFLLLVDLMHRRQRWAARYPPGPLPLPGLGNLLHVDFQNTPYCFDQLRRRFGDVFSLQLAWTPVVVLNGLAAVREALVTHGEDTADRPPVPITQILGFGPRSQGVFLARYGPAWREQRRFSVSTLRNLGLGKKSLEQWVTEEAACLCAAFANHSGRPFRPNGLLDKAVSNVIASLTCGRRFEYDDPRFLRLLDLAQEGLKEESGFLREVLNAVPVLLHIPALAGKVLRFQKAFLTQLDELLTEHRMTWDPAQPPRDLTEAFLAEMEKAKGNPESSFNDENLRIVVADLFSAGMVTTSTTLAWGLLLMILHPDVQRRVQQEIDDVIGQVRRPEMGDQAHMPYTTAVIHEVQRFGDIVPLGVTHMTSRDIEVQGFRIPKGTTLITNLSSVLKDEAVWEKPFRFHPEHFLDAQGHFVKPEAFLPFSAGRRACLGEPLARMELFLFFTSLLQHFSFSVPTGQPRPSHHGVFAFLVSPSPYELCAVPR
Sequence of Cytochrome P450 2C19 (P33261 whole entry): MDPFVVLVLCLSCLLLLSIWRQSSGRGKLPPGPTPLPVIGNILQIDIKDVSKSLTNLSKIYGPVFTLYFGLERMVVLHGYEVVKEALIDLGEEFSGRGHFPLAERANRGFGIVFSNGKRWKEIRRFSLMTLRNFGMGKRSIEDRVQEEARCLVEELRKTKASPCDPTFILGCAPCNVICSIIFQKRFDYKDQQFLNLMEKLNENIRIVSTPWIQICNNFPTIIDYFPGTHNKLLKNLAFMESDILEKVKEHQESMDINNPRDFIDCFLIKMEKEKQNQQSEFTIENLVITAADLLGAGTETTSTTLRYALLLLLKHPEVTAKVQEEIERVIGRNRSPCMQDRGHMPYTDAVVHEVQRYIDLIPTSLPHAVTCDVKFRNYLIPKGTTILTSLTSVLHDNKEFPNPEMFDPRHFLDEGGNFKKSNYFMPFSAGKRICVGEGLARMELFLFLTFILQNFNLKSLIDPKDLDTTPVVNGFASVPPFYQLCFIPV

- IC50 (Cytochrome P450 3A4 [1]): 13 µM
- IC50 (Cytochrome P450 1A2): > 100 µM
- IC50 (Cytochrome P450 2C19): 12 µM
- IC50 (Cytochrome P450 2C9 [2]): 19 µM
- IC50 (Cytochrome P450 3A4 [3]): 30 µM
- IC50 (Cytochrome P450 2D6 [4]): > 100 µM
SMILES: O=c1c(CCO)c(-c2cc(Cl)ccc2O)c2cc(C(F)(F)F)ccc2n1Cc1nn[nH]n1
- Increase [5]: 205.8%

SMILES: N=C(N)Cn1c(=O)c(CCO)c(-c2cc(Cl)ccc2O)c2cc(C(F)(F)F)ccc21
- Increase [5]: 105.8%

- IC50 (Cytochrome P450 2C9 [6]): 12.4 µM
SMILES: O=C1Cc2c(c3cc(C(F)(F)F)ccc3[nH]c2=O)-c2cc(Cl)ccc2O1

SMILES: NC(=O)COc1ccc(Cl)cc1-c1c(CCO)c(O)nc2ccc(C(F)(F)F)cc12
- Increase [5]: 124%

- IC50 (Cytochrome P450 3A4 [1]): 18 µM
- IC50 (Cytochrome P450 1A2): > 40 µM
- IC50 (Cytochrome P450 2C19): 24 µM
- IC50 (Cytochrome P450 2C9 [2]): 3.9 µM
- IC50 (Cytochrome P450 3A4 [3]): 13 µM
- IC50 (Cytochrome P450 2D6 [4]): 23 µM
SMILES: N#CCn1c(=O)c(CCO)c(-c2cc(Cl)ccc2O)c2cc(C(F)(F)F)ccc21
- Increase [5]: 236.6%

- IC50 (Cytochrome P450 2C9 [6]): 37.7 µM
SMILES: CCN(CC)C[C@H](O)CSc1c(-c2cc(Cl)ccc2O)c2cc(C(F)(F)F)ccc2[nH]c1=O

- IC50 (Cytochrome P450 2C9 [6]): 50.7 µM
SMILES: CCN(CC)C[C@@H](O)CSc1c(-c2cc(Cl)ccc2O)c2cc(C(F)(F)F)ccc2[nH]c1=O

SMILES: OCCc1c(O)nc2ccc(C(F)(F)F)cc2c1-c1cc(Cl)ccc1OCc1nn[nH]n1
- Increase [5]: 111%

- IC50 (Cytochrome P450 2C9 [6]): > 100 µM
SMILES: O=c1[nH]c2ccccc2c(Cc2ccccc2)c1-[n+]1ccccc1

SMILES: N=C(N)COc1ccc(Cl)cc1-c1c(CCO)c(O)nc2ccc(C(F)(F)F)cc12
- Increase [5]: 118.3%

- IC50 (Cytochrome P450 3A4 [1]): 50 µM
- IC50 (Cytochrome P450 1A2): > 100 µM
- IC50 (Cytochrome P450 2C19): 8.2 µM
- IC50 (Cytochrome P450 2C9 [2]): 16 µM
- IC50 (Cytochrome P450 3A4 [3]): 26 µM
- IC50 (Cytochrome P450 2D6 [4]): > 100 µM
SMILES: NC(=O)Cn1c(=O)c(CCO)c(-c2cc(Cl)ccc2O)c2cc(C(F)(F)F)ccc21
- Increase [5]: 262.5%

SMILES: N#CCOc1ccc(Cl)cc1-c1c(CCO)c(O)nc2ccc(C(F)(F)F)cc12
- Increase [5]: 148.9%

- IC50 (Cytochrome P450 2C9 [6]): 1.1 µM
SMILES: Cn1c(=O)c(CCO)c(-c2cc(Cl)ccc2O)c2cc(C(F)(F)F)ccc21
- Increase [5]: 296.1%

- IC50 (Cytochrome P450 2C9 [6]): 19.5 µM
SMILES: CC(=O)CC1Oc2ccc(Cl)cc2-c2c1c(=O)[nH]c1ccc(C(F)(F)F)cc21 (stereo not drawn)

- IC50 (Cytochrome P450 2C9 [6]): 5.47 µM
SMILES: COc1ccc(Cl)cc1-c1c(CCO)c(O)nc2ccc(C(F)(F)F)cc12
- Increase [5]: 211.2%

- IC50 (Cytochrome P450 2C9 [7]): 1.7 µM
- IC50 (Cytochrome P450 3A4 [8]): > 100 µM
- IC50 (Cytochrome P450 1A2): 30 µM
- IC50 (Cytochrome P450 2C19): 5.2 µM
- IC50 (Cytochrome P450 2C9 [2]): 1.7 µM
- IC50 (Cytochrome P450 3A4 [9]): 8.1 µM
- IC50 (Cytochrome P450 2D6 [10]): 35 µM
SMILES: O=c1[nH]c2ccc(C(F)(F)F)cc2c(-c2cc(Cl)ccc2O)c1CCO [BMS-223131]
- Increase [5]: 252.6%
